Test results: the NIST ThermoML archive (doi:10.1021/je060113j)

What was measured:
[1] = 101.33 kPa, Liquid; for viscosity: Capillary tube (Ostwald / Ubbelohde) method; for mass density: Pycnometric method; for speed of sound: Sing-around technique in a fixed-path interferometer
[2] = xn = mol fraction of the nth substance listed; conditions: 101 kPa, Liquid; for viscosity: Capillary tube (Ostwald / Ubbelohde) method; for mass density: Pycnometric method; for speed of sound: Sing-around technique in a fixed-path interferometer

OCCO [1,2-ethanediol]
[1]
Conditions	mass density [kg/m3]	speed of sound [m/s]	viscosity [mPa·s]
298.15 K	1106.3	1666	16.39
308.15 K	–	–	10.77
318.15 K	–	–	7.703

OCCO [1,2-ethanediol] + CN(C)C=O
[2], x1 = 0.5408
Conditions	mass density [kg/m3]	speed of sound [m/s]	viscosity [mPa·s]
298.15 K	1024.8	1584.4	3.065
308.15 K	1016.8	–	2.453
318.15 K	1008.2	–	1.96

OCCO [1,2-ethanediol] + C[S+](C)[O-]
[2], x1 = 0.5573
Conditions	mass density [kg/m3]	speed of sound [m/s]	viscosity [mPa·s]
298.15 K	1108.5	1617.3	5.195
308.15 K	1098.9	–	3.901
318.15 K	1089.6	–	3.108

C1COCCO1 [1,4-dioxane]
[1]
Conditions	mass density [kg/m3]	speed of sound [m/s]	viscosity [mPa·s]
298.15 K	1027.3	1344	1.224
308.15 K	1016	–	0.9268
318.15 K	1005.6	–	0.7991

C1COCCO1 [1,4-dioxane] + OCCO
[2], x2 = 0.5867
Conditions	mass density [kg/m3]	speed of sound [m/s]	viscosity [mPa·s]
298.15 K	1070.9	1519.2	4.386
308.15 K	1060.4	–	3.36
318.15 K	1050.9	–	2.661

C[S+](C)[O-] [dimethyl sulfoxide]
[1]
Conditions	mass density [kg/m3]	speed of sound [m/s]	viscosity [mPa·s]
298.15 K	1095.4	1493	2.042
308.15 K	1085.9	–	1.568
318.15 K	1076.7	–	1.485

CN(C)C=O [dimethylformamide]
[1]
Conditions	mass density [kg/m3]	speed of sound [m/s]	viscosity [mPa·s]
298.15 K	946.1	1465	0.8586
308.15 K	939.9	–	0.7763
318.15 K	931.6	–	0.7125

C1CCOC1 [tetrahydrofuran]
[1]
Conditions	mass density [kg/m3]	speed of sound [m/s]	viscosity [mPa·s]
298.15 K	880.7	1279	0.463
308.15 K	871.2	–	0.4277
318.15 K	861.4	–	0.3902

C1CCOC1 [tetrahydrofuran] + OCCO
[2], x2 = 0.5374
Conditions	mass density [kg/m3]	speed of sound [m/s]	viscosity [mPa·s]
298.15 K	984.5	1436.8	2.509
308.15 K	974.1	–	1.866
318.15 K	964.9	–	1.558

O [water]
[1]
Conditions	mass density [kg/m3]	speed of sound [m/s]	viscosity [mPa·s]
298.15 K	–	1498	0.8904
308.15 K	994.1	–	0.7194
318.15 K	990.3	–	0.596
